Measured values: patent publication US20090143484A1, “USE OF GARLIC OIL TO INCREASE BIOAVAILABILITY OF COENZYME Q-10” (priority 2007, published 2009)

Assays:
[1] = tested on: Caco-2 HTB-37 (human colon adenocarinoma); assay: Absorption testing using Caco-2 cells (cellular uptake of CoQ10, HPLC); type: in vitro ADME; settings: 37° C., up to 2 h
Procedure: Caco-2 HTB-37 (human colon adenocarinoma), obtained from ATCC, were cultured in DMEM (Dulbecco/Vogt modified Eagle's minimal essential medium) containing 20% FCS (Fetal Calf Serum), 1% nonessential amino acids, 0.83 mM L-glutamine and 1% penicillin-streptomycin at 37° C. in a humified atmosphere of CO2. Cells were grown in 75 cm^2 culture-flasks (T75) and their medium was replaced every third day. As soon as confluency was reached—once a week—they were split using trypsin.
After discarding the old medium, the monolayer was washed with 10 mL PBS. Subsequently, 3 mL trypsin was added in order to detach the cells. […]
The remaining 9 mL cell-suspension was used for experiments and was therefore transferred into a 15 mL falcon. After the cells had been counted by using a Neubauer-chamber, cells were seeded into 6 Well Thin Certs and 6 Wells at a density of 3×10^5 and 6.76×10^5, respectively. […]
The optimum amount of the emulsifier lecithin had to be determined individually for each sample. […]
A reversed-phase column (Spherimage-80) with 5 μm pore size and […] was used. […] Coenzyme Q10 (oxidized and reduced) were monitored at 275 nm.
CoQ10 was determined in the media (outside the cells) and in the cells. Both, oxidized and reduced CoQ10, were quantified. […]

Human LDL = assay: Prevention of LDL oxidation (CuSO4-initiated conjugated diene formation at 234 nm); type: biochemical; settings: LDL 0.1 mg/ml
Procedure: Human LDL were obtained by ultracentrifugation from fresh human blood, followed by dialysis against in 10 mM PBS (pH 7.4) at 4° C. in the dark for 24 h. LDL (0.1 mg/ml) were mixed with different amounts of active constituents. Reaction was initiated by adding a solution of CuSO4 (10 μM); samples were then incubated at 37° C. for 22 h. The formation of conjugated diene was measured at 234 nm using a Hewlett-Packard spectrophotometer (Agilent, Palo Alto).
Data evaluation was performed by comparison of the slope of increase in diene-formation. The steepest slope (i.e. without addition of anti-oxidants) was set to 100%. Results are given as relative %.
The lag-time until start of diene formation was estimated from the kinetic curves obtained. Results are given in minutes.

In the case of `COC1=C(OC)C(=O)C(C/C=C(\C)CC/C=C(\C)CC/C=C(\C)CC/C=C(\C)CC/C=C(\C)CC/C=C(\C)CC/C=C(\C)CC/C=C(\C)CC/C=C(\C)CCC=C(C)C)=C(C)C1=O` [CoQ10], the “content of CoQ10 in the media during the incubation conditions” value [1] is reported as “stable”, the Inhibition (Human LDL; 0.1 mg/mL of CoQ10) is reported as 13% and the Residual activity (Human LDL; 0.1 mg/mL of CoQ10) is reported as 87%. For the same molecule, the Inhibition (Human LDL; 1 mg/mL of CoQ10) was 43%, the Residual activity (Human LDL; 1 mg/mL of CoQ10) was 57% and the Inhibition (Human LDL; 1 mg/mL of CoQ10, listed as CoQ-10) was “about 43%”. The Inhibition (Human LDL; 10 mg/mL of CoQ10) was 68%, the Residual activity (Human LDL; 10 mg/mL of CoQ10) was 32% and the “Lag Time” value (Human LDL; lag time to start of LDL-oxidation, Co Q10 1 mg/mL) was 146 min.
